Source: ChEMBL document CHEMBL1133394, “Novel C-ring analogues of 20(S)-camptothecin. Part 3: synthesis and their in vitro cytotoxicity of A-, B- and C-ring analogues” (Bioorg Med Chem Lett, 2000)

How the values were obtained:
[1] = system: Panel (56 tumour cell lines); assay: Tested in vitro for cytotoxicity against 56 human tumor cell lines; format: functional, cell-based
OVCAR-8 = assay: Tested in vitro for cytotoxicity against human tumor cell line OVCAR8 (ovarian).; format: functional
SF-268 = assay: Tested in vitro for cytotoxicity against human tumor cell line SF-268 (CNS).; format: functional
HOP-62 = assay: Tested in vitro for cytotoxicity against human tumor cell line HOP62 (lung); format: functional
DU-145 [2] = assay: Tested in vitro for cytotoxicity against human tumor cell line DU-145 (prostate); format: functional
UACC-62 = assay: Tested in vitro for cytotoxicity against human tumor cell line UACC 62 (melanoma); format: functional
NCI/ADR-RES = assay: Tested in vitro for cytotoxicity against human tumor cell line MCF-7/ADR (breast); format: functional
ACHN [3] = assay: Tested in vitro for cytotoxicity against human tumor cell line ACHN (renal).; format: functional
DU-145 [4] = assay: The compound was tested in vitro for cytotoxicity against human tumor cell line DU-145 (prostate); format: functional
ACHN [5] = assay: The compound was tested in vitro for cytotoxicity against human tumor cell line ACHN (renal).; format: functional
NCI-H23 [6] = assay: The compound (5 mg/kg) administered intravenously was tested for antitumor activity against NCI-H23 (lung) xenograft model in mice; format: functional, Mus musculus
Mus musculus [7] = assay: The compound (2.5 mg/kg) administered intravenously was tested for antitumor activity against A-498 (renal) xenograft model in mice; format: functional
Mus musculus [8] = assay: The compound (10 mg/kg) administered intravenously was tested for antitumor activity against A-498 (renal) xenograft model in mice; format: functional
Mus musculus [9] = assay: The compound (5 mg/kg) administered intravenously was tested for antitumor activity against DU-145 (prostate) xenograft model in mice; format: functional, Prostate gland
Mus musculus [10] = assay: The compound (2.5 mg/kg) administered intravenously was tested for antitumor activity against DU-145 (prostate) xenograft model in mice; format: functional, Prostate gland
NCI-H23 [11] = assay: The compound (10 mg/kg) administered intravenously was tested for antitumor activity against NCI-H23 (lung) xenograft model in mice; format: functional, Mus musculus
Mus musculus [12] = assay: The compound (5 mg/kg) administered intravenously was tested for antitumor activity against A-498 (renal) xenograft model in mice; format: functional
NCI-H23 [13] = assay: The compound (2.5 mg/kg) administered intravenously was tested for antitumor activity against NCI-H23 (lung) xenograft model in mice; format: functional, Mus musculus
Mus musculus [14] = assay: The compound (10 mg/kg) administered intravenously was tested for antitumor activity against DU-145 (prostate) xenograft model in mice; format: functional, Prostate gland
Mus musculus [15] = assay: The compound (200 mg/kg) administered intravenously was tested for antitumor activity against DU-145 (prostate) xenograft model in mice; format: functional, Prostate gland
NCI-H23 [16] = assay: (§1) The compound (90 mg/kg) administered intravenously was tested for antitumor activity against NCI-H23 (lung) xenograft model in mice; format: functional, Mus musculus
Mus musculus [17] = assay: The compound (134 mg/kg) administered intravenously was tested for antitumor activity against A-498 (renal) xenograft model in mice; format: functional
Mus musculus [18] = assay: The compound (90 mg/kg) administered intravenously was tested for antitumor activity against DU-145 (prostate) xenograft model in mice; format: functional, Prostate gland
Mus musculus [19] = assay: The compound (200 mg/kg) administered intravenously was tested for antitumor activity against A-498 (renal) xenograft model in mice; format: functional
NCI-H23 [20] = assay: (§2) The compound (134 mg/kg) administered intravenously was tested for antitumor activity against NCI-H23 (lung) xenograft model in mice; format: functional, Mus musculus
NCI-H23 [21] = assay: (§3) The compound (200 mg/kg) administered intravenously was tested for antitumor activity against NCI-H23 (lung) xenograft model in mice; format: functional, Mus musculus
Mus musculus [22] = assay: The compound (134 mg/kg) administered intravenously was tested for antitumor activity against DU-145 (prostate) xenograft model in mice; format: functional, Prostate gland
Mus musculus [23] = assay: The compound (90 mg/kg) administered intravenously was tested for antitumor activity against A-498 (renal) xenograft model in mice; format: functional
Mus musculus [24] = assay: as §3; format: functional
Mus musculus [25] = assay: as §1; format: functional
Mus musculus [26] = assay: as §2; format: functional

Compound | IC50 [1] [nM] | GI50 (OVCAR-8) [nM] | GI50 (SF-268) [nM] | GI50 (HOP-62) [nM] | GI50 (DU-145 [2]) [nM] | GI50 (UACC-62) [nM] | GI50 (NCI/ADR-RES) [nM] | GI50 (ACHN [3]) [nM] | also measured
CCOC1c2cc3cc(O)ccc3nc2-c2cc3c(c(=O)n21)COC(=O)[C@]3(O)CC (some centres undefined) | 2880 | – | – | – | – | – | – | – | –
CCc1c2c(nc3cccc(OC)c13)-c1cc3c(c(=O)n1C2OCCOC)COC(=O)[C@]3(O)CC (some centres undefined) | – | 850 | 590 | 660 | 1140 | 2540 | 510 | 520 | –
CC[C@@]1(O)C(=O)OCc2c1cc1n(c2=O)C(OCCO)c2cc3cc(O)ccc3nc2-1 (some centres undefined) | – | 2520 | 2100 | 2440 | 3260 | 2120 | – | 3400 | –
CC[C@@]1(O)C(=O)OCc2c1cc1n(c2=O)C(OCCF)c2cc3c([N+](=O)[O-])cccc3nc2-1 (some centres undefined) | – | 740 | 310 | 360 | 630 | 400 | 200 | 250 | –
CC[C@@]1(O)C(=O)OCc2c1cc1n(c2=O)C(OCCF)c2cc3cc(O)ccc3nc2-1 (some centres undefined) | – | 4500 | 20000 | 10000 | 250 | 10000 | 4000 | 500 | –
CCOC1c2c(nc3ccc(O)cc3c2CC)-c2cc3c(c(=O)n21)COC(=O)[C@]3(O)CC (some centres undefined) | 5000 | – | – | – | – | – | – | – | –
CCc1c2c(nc3cccc(OC)c13)-c1cc3c(c(=O)n1C2OCCO)COC(=O)[C@]3(O)CC (some centres undefined) | – | 8400 | 1100 | 6470 | 5020 | – | 5530 | 3820 | –
CCc1c2c(nc3cccc(OC)c13)-c1cc3c(c(=O)n1C2OCCF)COC(=O)[C@]3(O)CC (some centres undefined) | – | 1920 | 1890 | 1220 | 790 | 2020 | 1990 | 1060 | –
CCc1c2c(nc3cccc(OC)c13)-c1cc3c(c(=O)n1C2OCC(F)(F)F)COC(=O)[C@]3(O)CC (some centres undefined) | – | 2630 | 2130 | 1580 | 3900 | 4680 | 1840 | 2830 | –
CCc1c2c(nc3ccc(O)cc13)-c1cc3c(c(=O)n1C2OCCOC)COC(=O)[C@]3(O)CC (some centres undefined) | – | 100 | > 30000 | 20000 | 550 | 600 | 200 | 600 | –
CCc1c2c(nc3ccc(O)cc13)-c1cc3c(c(=O)n1C2OCC(F)(F)F)COC(=O)[C@]3(O)CC (some centres undefined) | – | 500 | 2000 | 2000 | 1000 | 70 | 400 | 400 | –
CC[C@@]1(O)C(=O)OCc2c1cc1n(c2=O)C(OCCOC)c2cc3c([N+](=O)[O-])cccc3nc2-1 (some centres undefined) | – | 970 | 1000 | 400 | – | 470 | – | – | GI50 (DU-145 [4]): 440 nM; GI50 (ACHN [5]): 430 nM
CCc1c2c(nc3ccc(O)cc13)-c1cc3c(c(=O)n1C2OCCF)COC(=O)[C@]3(O)CC (some centres undefined) | – | 500 | > 30000 | 25000 | 1000 | 1000 | 100 | 8000 | –
CC[C@@]1(O)C(=O)OCc2c1cc1n(c2=O)C(OCCO)c2cc3c([N+](=O)[O-])cccc3nc2-1 (some centres undefined) | – | 7140 | 4660 | 2450 | 4130 | 2460 | – | 3360 | –
CCOC1c2c(nc3cccc(O)c3c2CC)-c2cc3c(c(=O)n21)COC(=O)[C@]3(O)CC (some centres undefined) | 4670 | – | – | – | – | – | – | – | –
CC[C@@]1(O)C(=O)OCc2c1cc1n(c2=O)C(OCCOC)c2cc3cc(O)ccc3nc2-1 (some centres undefined) | – | 4500 | 5000 | 4000 | 680 | 520 | < 10 | 1200 | –
CC[C@@]1(O)C(=O)OCc2c1cc1n(c2=O)Cc2cc3ccccc3nc2-1 [CAMPTOTHECIN] | 40 | – | – | – | – | – | – | – | –
CC[C@@]1(O)C(=O)OCc2c1cc1n(c2=O)Cc2cc3c(CN(C)C)c(O)ccc3nc2-1 [TOPOTECAN] | 160 | 200 | 80 | 50 | 40 | 30 | 70 | 40 | T-C/C (NCI-H23 [6]): 6%; T-C/C (Mus musculus [7]): 11%; T-C/C (Mus musculus [8]): 47%; T-C/C (Mus musculus [9]): 35%; T-C/C (Mus musculus [10]): 83%; T-C/C (NCI-H23 [11]): 60%; T-C/C (Mus musculus [12]): 67%; T-C/C (NCI-H23 [13]): 10%; T-C/C (Mus musculus [14]): 339%
CC[C@@]1(O)C(=O)OCc2c1cc1n(c2=O)C(OCC(F)(F)F)c2cc3cc(O)ccc3nc2-1 (some centres undefined) | – | 260 | 30 | 60 | 100 | 100 | 200 | 100 | T-C/C (Mus musculus [15]): 21%; T-C/C (NCI-H23 [16]): 12%; T-C/C (Mus musculus [17]): 46%; T-C/C (Mus musculus [18]): 8%; T-C/C (Mus musculus [19]): 27%; T-C/C (NCI-H23 [20]): 58%; T-C/C (NCI-H23 [21]): 58%; T-C/C (Mus musculus [22]): 4%; T-C/C (Mus musculus [23]): 46%
CCOC1c2cc3cccc([N+](=O)[O-])c3nc2-c2cc3c(c(=O)n21)COC(=O)[C@]3(O)CC (some centres undefined) | > 30000 | – | – | – | – | – | – | – | –
CCOC1c2c(nc3cccc(OC)c3c2CC)-c2cc3c(c(=O)n21)COC(=O)[C@]3(O)CC (some centres undefined) | 5370 | – | – | – | – | – | – | – | –
CCOC1c2cc3c(O)cccc3nc2-c2cc3c(c(=O)n21)COC(=O)[C@]3(O)CC (some centres undefined) | 200 | – | – | – | – | – | – | – | T-C/C (Mus musculus [15]): 33%; T-C/C (Mus musculus [24]): 12%; T-C/C (Mus musculus [25]): 8%; T-C/C (Mus musculus [17]): 8%; T-C/C (Mus musculus [18]): 9%; T-C/C (Mus musculus [19]): 6%; T-C/C (Mus musculus [26]): 15%; T-C/C (Mus musculus [22]): 27%; T-C/C (Mus musculus [23]): 23%
CC[C@@]1(O)C(=O)OCc2c1cc1n(c2=O)C(OCC(F)(F)F)c2cc3c([N+](=O)[O-])cccc3nc2-1 (some centres undefined) | – | 130 | 90 | 500 | 60 | 160 | 70 | 20 | –
CCOC1c2cc3c([N+](=O)[O-])cccc3nc2-c2cc3c(c(=O)n21)COC(=O)[C@]3(O)CC (some centres undefined) | 27500 | – | – | – | – | – | – | – | –
